Test results from ChEMBL document CHEMBL1136837, “Unified QSAR approach to antimicrobials. 4. Multi-target QSAR modeling and comparative multi-distance study of the giant components of antiviral drug-drug complex networks” (Bioorg Med Chem, 2009).

System: Human immunodeficiency virus 1
Assay: Antiviral activity against HIV1
Format: functional, organism-based

Structure (SMILES) | IC50 [µM]
CCO/N=C(\c1ccc(Br)cc1)C1CCN(C2(C)CCN(C(=O)c3c(C)cc(C)nc3O)CC2)CC1 | 0.0064
CC(=O)Oc1ccc(/C=C/C(=O)O[C@H](C(=O)O)[C@H](OC(=O)/C=C/c2ccc(OC(C)=O)c(OC(C)=O)c2)C(=O)O)cc1OC(C)=O | 15.7
Nc1ncnc2c1ncn2[C@H]1CC(F)(F)[C@H](CO)O1 | 100
C=C(C)[C@@H]1CC[C@]2(C(=O)N[C@@H](CC(C)C)C(=O)OC)CC[C@]3(C)[C@H](CC[C@@H]4[C@@]5(C)CC[C@H](OC(C)=O)C(C)(C)[C@@H]5CC[C@]43C)[C@@H]12 | 40
Cc1ccc(S(=O)(=O)c2c(C(N)=O)[nH]c3ccc(Cl)cc23)cc1 | 0.003
O=c1[nH]cnc2c1ncn2[C@@H]1S[C@H](CO)C=C1F | 43.6
N#Cc1c(Cl)n([C@@H]2O[C@H](CF)[C@@H](O)[C@H]2O)c2cc(Cl)c(Cl)cc12 | 40
Nc1nc(NC2CC2)c2ncn([C@H]3C=C[C@@H](CO)O3)c2n1 | 8.6
Cc1cn([C@H]2C=C[C@@](C#N)(CO)O2)c(=O)[nH]c1=O | 7
CCn1cc(C(=O)CC(=O)C(=O)OC)c2ccccc21 | 19
Fc1cccc(F)c1Cn1c(-c2c(F)cccc2F)nc2c(Cl)cccc21 | 0.4
Cc1cc(Br)c(Nc2ccnc(Nc3ccc(C#N)cc3)n2)c(Br)c1 | 0.00063
CC(=O)OCc1cc2c(C)cc(=O)oc2c2c1OC(C)(C)[C@H](OC(=O)[C@@]13CC[C@](C)(C(=O)O1)C3(C)C)[C@@H]2OC(=O)[C@@]12CC[C@](C)(C(=O)O1)C2(C)C | 14.1
Cc1c(C(C)c2c(F)cccc2F)nc(NC2CCCC2)[nH]c1=O (stereo not given) | 0.035
CC(C)(C)c1ccc(Sc2c(C(N)=O)[nH]c3ccc(Cl)cc23)cc1 | 8
Cc1ncc([N+](=O)[O-])n1CCOC(c1ccccc1)c1cc(Cl)cc(Cl)c1 (stereo not given) | 45
O=c1cc(Cc2c(F)cccc2F)nc(SC2CCCC2)[nH]1 | 0.08
CCn1c(C(=O)CC(=O)C(=O)OC)cc2ccccc21 | 60
C=CC[C@@]1(CO)C=C[C@H](n2cc(C)c(=O)[nH]c2=O)O1 | 100
Cc1cn([C@H]2C=C[C@@](C)(CO)O2)c(=O)[nH]c1=O | 100
Nc1ncnc2c1ncn2C1C=CC(OCP(=O)(O)OP(=O)(O)C(F)(F)P(=O)(O)OP(=O)(O)COC2C=CC(n3cnc4c(N)ncnc43)C2)C1 (stereo not given) | 20
OC[C@@H]1C=C(F)[C@@H](n2cnc3c(O)ncnc32)O1 | 100
COc1ccc(C(OCCn2c([N+](=O)[O-])cnc2C)c2ccccc2)cc1 (stereo not given) | 86
Cc1c(CO)c(=O)oc2c3c(ccc12)OC(C)(C)[C@H](OC(=O)C12CCC(C)(C(=O)O1)C2(C)C)[C@@H]3OC(=O)C12CCC(C)(C(=O)O1)C2(C)C (stereo not given in full) | 24.9

Structure (SMILES) | IC50 [µM]
O=c1nc(O)ccn1[C@H]1CC(F)(F)[C@H](CO)O1 | 100
NNC(=O)c1cc2ccccc2n1S(=O)(=O)c1ccccc1 | 200
CC(=O)c1c(Cl)n([C@H]2C[C@H](O)[C@@H](CO)O2)c2cc(Cl)c(Cl)cc12 | 8
Cc1cc(/C=C/C#N)cc(C)c1Nc1ccnc(Nc2ccc(C#N)cc2)n1 [RILPIVIRINE] | 0.0004
NC(=O)c1cc2ccc(Cl)cc2n1S(=O)(=O)c1ccccc1 | 66
Nc1nc(O)c2ncn([C@H]3S[C@@H](CO)C=C3F)c2n1 | 43.5
CCOC(=O)Cc1c(N)nc(N)nc1OCCOCP(=O)(O)O | 0.0003
Cc1c(O)cccc1C(=O)N[C@@H](CSc1ccccc1)[C@H](O)CN1C[C@H]2CCCC[C@H]2C[C@H]1C(=O)NC(C)(C)C | 0.027
O=C(O)/C(O)=C/C(=O)c1ccc(C(=O)/C=C(\O)C(=O)O)cc1 | 1.28
O=C1CSC(c2c(Cl)cccc2Cl)N1c1ccc(Br)cn1 (stereo not given) | 1.51
COc1ccc(F)cc1-c1nc2c(N)cccc2n1Cc1c(F)cccc1F | 2.71
O=C(NNC(=O)c1ccccc1S)c1ccccc1S [BIS(THIOSALICYL)HYDRAZIDE] | 4.3
CO/N=C(\c1ccc(Br)cc1)C1CCN(C2(C)CCN(C(=O)c3c(C)cccc3O)CC2)CC1 | 0.004
Cc1cc(OCCCS(N)(=O)=O)ccc1NC(=O)COc1ccc(Cl)cc1C(=O)c1cc(F)cc(C(F)(F)F)c1 | 0.0024
Nc1ncnc2c1ncn2[C@@H]1CC(F)(F)[C@H](CO)O1 | 100
Cc1ccc(S(=O)(=O)c2c(C(N)=O)[nH]c3ccc(Cl)cc23)c(C)c1 | 0.004
O=C(c1cc(Cc2ccccc2)ccn1)c1ccc2cccnc2c1O | 0.05
O=C(O)c1ccc2ccc(/C=C/c3cc(O)cc(/C=C/c4ccc5ccc(C(=O)O)c(O)c5n4)c3)nc2c1O | 100
Cc1cn([C@H]2S[C@@H](CO)C=C2F)c(=O)[nH]c1=O | 100
O=Cc1cccc2c1nc(-c1c(F)cccc1F)n2Cc1c(F)cccc1F | 0.1
Cc1cc(C)nc(N2C(=O)CSC2c2c(Cl)cccc2Cl)c1 (stereo not given) | 0.09
O=c1nc(O)ccn1[C@@H]1C=C(F)[C@H](CO)O1 | 100
NNC(=O)c1[nH]c2ccc(Cl)cc2c1S(=O)(=O)c1ccccc1 | 0.01
CC(c1cc(=O)[nH]c(NC2CCCC2)n1)c1c(F)cccc1F (stereo not given) | 0.04

Structure (SMILES) | IC50 [µM]
CC(=O)OCc1cc2ccc3c(c2oc1=O)[C@@H](OC(=O)[C@@]12CC[C@](C)(C(=O)O1)C2(C)C)[C@@H](OC(=O)[C@@]12CC[C@](C)(C(=O)O1)C2(C)C)C(C)(C)O3 | 11.6
O=C(/C=C/c1ccc(O)c(O)c1)NCC(OC(=O)/C=C/c1ccc(O)c(O)c1)C(=O)O (racemic) | 0.19
COC(=O)C(C)NP(=O)(OC[C@@H]1C=C[C@H](n2cc(C)c(=O)[nH]c2=O)O1)Oc1ccc(Br)cc1 (stereo not given in full) [STAMPIDINE] | 0.003
Cc1cccc(C)c1OCC(=O)N[C@@H](Cc1ccccc1)[C@@H](O)C[C@H](Cc1ccccc1)NC(=O)[C@H](C(C)C)N1CCCNC1=O [LOPINAVIR] | 0.034
Cc1cn([C@@H]2O[C@H](CO)C=C2F)c(=O)nc1N | 100
O=c1ccn([C@H]2S[C@@H](CO)C=C2F)c(=O)[nH]1 | 100
Nc1nc(=O)n([C@H]2O[C@H](CO)C=C2F)cc1F | 100
Nc1ncnc2c1ncn2C1C=CC(OCP(=O)(O)OP(=O)(O)OP(=O)(O)O)C1 (stereo not given) | 0.2
CCN(CC)Cc1cc2ccc3c(c2oc1=O)[C@@H](OC(=O)[C@@]12CC[C@](C)(C(=O)O1)C2(C)C)[C@@H](OC(=O)[C@@]12CC[C@](C)(C(=O)O1)C2(C)C)C(C)(C)O3 | 14.1
[N-]=[N+]=NC[C@H]1O[C@@H](n2c(Cl)c(C=O)c3cc(Cl)c(Cl)cc32)[C@H](O)[C@@H]1O | 10
C=C(C)[C@@H]1CC[C@]2(C(=O)NCCCCCCCC(=O)N[C@@H](CC(C)C)[C@H](O)CC(=O)O)CC[C@]3(C)[C@H](CC[C@@H]4[C@@]5(C)CC[C@H](O)C(C)(C)[C@@H]5CC[C@]43C)[C@@H]12 | 0.33
NC(=O)c1cc2ccccc2n1S(=O)(=O)c1ccccc1 | 15
Cc1cccc(S(=O)(=O)c2c(C(N)=O)[nH]c3ccc(Cl)cc23)c1 | 0.001
COC(=O)c1[nH]c(-c2ccc3c(n2)C(=O)C(NC(C)=O)=CC3=O)c2nc3ccccc3c-2c1C | 15.1
Cc1cc(=O)oc2c3c(c(CN)cc12)OC(C)(C)[C@H](OC(=O)[C@@]12CC[C@](C)(C(=O)O1)C2(C)C)[C@@H]3OC(=O)[C@@]12CC[C@](C)(C(=O)O1)C2(C)C | 15
Fc1cccc(F)c1Cn1c(-c2ccccc2)nc2ccccc21 | 0.06
Nc1ncnc2c1ncn2[C@@H]1O[C@H](CO)C=C1F | 0.44
CC(=O)NC1=CC(=O)c2ccc(-c3[nH]c(C(=O)O)cc4c5ccccc5nc3-4)nc2C1=O | 13.3
O=C(OC(C(=O)O)C(OC(=O)c1ccsc1)C(=O)O)c1ccsc1 (stereo not given) | 10
CC(=O)c1ccc2[nH]c(C(N)=O)c(S(=O)(=O)c3cc(C)cc(C)c3)c2c1 | 0.015
CC(C)C[C@H](NC(=O)[C@H](Cc1ccccc1)C[C@H](O)[C@@H](CC(=O)OC(C)(C)C)Cc1ccccc1)C(=O)N[C@@H](Cc1ccccc1)C(N)=O | 0.6
Cc1cc(S(N)(=O)=O)ccc1NC(=O)COc1ccc(Cl)cc1C(=O)c1cc(F)cc(C(F)(F)F)c1 | 0.004
O=C(O)/C(O)=C/C(=O)c1ccnc2ccccc12 | 100
Cc1cccc(C)c1C(=O)N1CCC(C)(N2CCC(Cc3ccc(Br)cc3)CC2)CC1 | 0.01

Structure (SMILES) | IC50 [µM]
O=c1nc(O)ccn1[C@@H]1S[C@H](CO)C=C1F | 100
CCOC(=O)c1cc2ccccc2n1S(=O)(=O)c1ccccc1 | 200
CC(c1cc(=O)[nH]c(SC2CCCC2)n1)c1c(F)cccc1F (stereo not given) | 0.03
Cc1ncc([N+](=O)[O-])n1CCOC(c1ccccc1)c1cccc(-n2cccc2)c1 (stereo not given) | 14
CC(C)Nc1cccnc1N1CCN(C(=O)c2cc3cc(NS(C)(=O)=O)ccc3[nH]2)CC1 [DELAVIRDINE] | 5.4
NC(=O)c1cn(S(=O)(=O)c2ccccc2)c2ccccc12 | 32
Nc1nc(O)c2ncn([C@@H]3C=C(F)[C@H](CO)O3)c2n1 | 38.5
Cc1cn([C@H]2C=C[C@@](C#CCl)(CO)O2)c(=O)[nH]c1=O | 100
O=C(O)/C(O)=C/C(=O)c1c[nH]c2ccc(Cl)cc12 | 0.52
NNC(=O)c1[nH]c2ccc(Cl)cc2c1Sc1ccc(F)cc1 | 5
Cc1ccc(S(=O)(=O)c2c(C(=O)NN)[nH]c3ccc(Cl)cc23)cc1 | 0.05
COc1ccnc2[nH]cc(C(=O)C(=O)N3CCN(C(=O)c4ccccc4)C[C@H]3C)c12 | 0.00085
CC(C)OC(=O)c1cn(S(=O)(=O)c2ccccc2)c2ccccc12 | 5
O=C1CSC(c2c(F)cccc2Cl)N1c1ccc(Cl)cn1 (stereo not given) | 2.13
CCOC(=O)c1cc2ccccc2n1S(=O)(=O)c1cc(Cl)ccc1[N+](=O)[O-] | 100
CCO/N=C(\c1ccc(Br)cc1)C1CCN(C2(C)CCN(C(=O)c3c(C)ccc[n+]3[O-])CC2)CC1 | 0.0017
O=C(O)c1ccc2ccc(/C=C/c3ccco3)nc2c1O | 100
NC(=O)c1[nH]c2ccc(Cl)cc2c1Sc1ccc(Cl)cc1 | 3.1
Cc1ncc([N+](=O)[O-])n1CCCOC(c1ccccc1)c1ccccc1 | 35
O=C(/C=C(\O)c1nnn[nH]1)c1c[nH]c2ccc(F)cc12 | 1.8
Cc1cn([C@@H]2C=C(F)[C@H](CO)O2)c(=O)nc1O | 100
Cc1cn([C@H]2C=C(F)[C@H](CO)O2)c(=O)nc1O | 100
Nc1nc(O)c2ncn([C@@H]3O[C@H](CO)C=C3F)c2n1 | 2.6
